Data published in PMC13588620, “Linear antibody epitope prediction using AlphaFold2” (eLife, 2026).

System: mBG17 binding to SARS-CoV-2 nucleocapsid protein
Assay: Peptide competition ELISA with overlapping nucleocapsid peptides
Parameters: species or system mouse
Settings: 40 μg (approximately 30 nMol) peptide incubated with 40 μl mBG17 for 1 h at room temperature, absorbance at 450 nm, n=3, percentage of binding from no-peptide control

Sequence	competition of mBG17 binding to the SARS-CoV-2 nucleocapsid protein in the ELISA
DDFSKQLQQS [a.a. 401–410]	almost complete competition
PAADLDDFSK [a.a. 296–405, synthetic 10 a.a. peptide of SARS-CoV-2 nucleocapsid protein overlapping a.a; 401–410 at the N-terminus]	neither was able to compete
QLQQSMSSAD [a.a. 406–415, synthetic 10 a.a. peptide of SARS-CoV-2 nucleocapsid protein]	neither was able to compete
